From patent publication US8993765B2, “Tetrahydro-azacarboline MCH-1 antagonists, methods of making, and uses thereof” (Albany Molecular Research, Inc., priority 2010, dated 2015) come the findings set out here.

pKi: −log10 of the molar value. Like-named read-outs stand apart in the source and are kept apart here.

One series concerns the target human MCH-1 receptor (Homo sapiens (Human), UniProt Q99705). Kind of series: Binding Assay for Human Melanin-Concentrating Hormone (MCH-1) Receptor. The following applies: membranes of CHO-K1 cells expressing human MCH-1 receptor; for pKi: radioligand displacement, Ki by Cheng Prusoff equation, read-out: MCH1 Ki. As to the method:
Binding Assay for Human Melanin-Concentrating Hormone (MCH-1) Receptor
Evaluation of the affinity of compounds for the human MCH-1 receptor was accomplished using 4-(3,4,5-tritritiumbenzyloxy)-1-(1-(2-(pyrrolidin-1-yl)ethyl)-1H-indazol-5-yl)pyridin-2(1H)-one and membranes prepared from stable CHO-K1 cells expressing the human MCH-1 receptor obtained from Euroscreen (Batch 1138). Cell membrane homogenates (8.92 μg protein) were incubated for 60 min at 25° C. with […] of the [^3H]-labeled compound in the absence or presence of the test compound in 50 mM Tris-HCl buffer, pH 7.4. Nonspecific binding was determined in the presence of 50 μM 1-(5-(4-cyanophenyl)bicyclo[3.1.0]hexan-2-yl)-3-(4-fluoro-3-(trifluoromethyl)phenyl)-1-(3-(4-methylpiperazin-1-yl)propyl)urea. Following incubation, the samples were filtered rapidly under vacuum through Skatron 11731 filters, pre-soaked in 0.5% polyethylenimine, and washed with ice-cold 50 mM Tris-HCl buffer, pH 7.4, (wash setting 9,9,0) using a Skatron cell harvester. The filters were counted for radioactivity in a liquid scintillation counter (Tri-Carb 2100TR, Packard) using a scintillation cocktail (Ultima Gold MV, Perkin Elmer).
The results are expressed as a percent inhibition of the control radioligand specific binding. The IC50 value (concentration causing a half-maximal inhibition of control specific binding) and Hill coefficient (nH) were determined by non-linear regression analysis of the competition curve using Hill equation curve fitting. The inhibition constant (Ki) was calculated from the Cheng Prusoff equation: (Ki=IC50/(1+(L/KD)), where L=concentration of radioligand in the assay, and KD=affinity of the radioligand for the receptor.

Chain of human MCH-1 receptor (Q99705 whole entry): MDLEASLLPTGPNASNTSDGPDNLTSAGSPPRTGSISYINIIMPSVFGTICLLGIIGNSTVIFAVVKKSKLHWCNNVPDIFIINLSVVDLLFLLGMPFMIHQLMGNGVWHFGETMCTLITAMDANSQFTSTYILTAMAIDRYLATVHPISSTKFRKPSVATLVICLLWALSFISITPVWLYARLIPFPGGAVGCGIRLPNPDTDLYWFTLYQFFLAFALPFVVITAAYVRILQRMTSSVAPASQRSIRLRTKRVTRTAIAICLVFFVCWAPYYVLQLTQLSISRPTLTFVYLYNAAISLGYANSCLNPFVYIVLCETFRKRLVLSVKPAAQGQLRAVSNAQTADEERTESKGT

For the molecule `CC1Cc2c(c3ccc(-n4ccc(OCc5ccccc5)cc4=O)nc3n2C)CN1.Cl` (stereo not shown) [Example 13, 4-(Benzyloxy)-1-(7,9-dimethyl-5,7,8,9-tetrahydro-6H-pyrido[3′,4′:4,5]pyrrolo[2,3-b]pyridin-2-yl)pyridin-2(1H)-one hydrochloride], the melting point lay within 285 to 289 °C. Also, on human MCH-1 receptor (hydrochloride), the pKi is 8.03.
`CC1Cc2c(c3ccc(-n4ccc(OCc5ccc(F)cn5)cc4=O)nc3n2C)CN1.Cl` (stereo not shown) [Example 14, 1-(7,9-Dimethyl-5,7,8,9-tetrahydro-6H-pyrido[3′,4′:4,5]pyrrolo[2,3-b]pyridin-2-yl)-4-((5-fluoropyridin-2-yl)methoxy)pyridin-2(1H)-one hydrochloride] registered a melting point of 288 to 292 °C. In addition, the pKi on human MCH-1 receptor is 7.60.
The matching figures for `Cl.Cn1c2c(c3ccc(-n4ccc(OCc5ccc(F)cc5F)cc4=O)nc31)CNCC2` [Example 16, 4-((2,4-Difluorophenyl)methoxy)-1-(9-methyl-5,7,8,9-tetrahydro-6H-pyrido[3′,4′:4,5]pyrrolo[2,3-b]pyridin-2-yl)pyridin-2(1H)-one hydrochloride]: 206 to 210 °C and 8.08.
`Cl.O=c1cc(OCc2ccc(F)cn2)ccn1-c1ccc2c(c1)nc1n2CCNC1` [Example 19, 4-((5-Fluoropyridin-2-yl)methoxy)-1-(1,2,3,4-tetrahydropyrazino[1,2-a]benzimidazol-8-yl)pyridin-2(1H)-one hydrochloride] registered a melting point of 245 to 255 °C. Also, the inhibition at 1 µM on human MCH-1 receptor (@ 1 uM test compound, read-out: MCH1 percent inhibition of control radioligand specific binding) was 72%.
For the molecule `Cl.O=c1cc(OCc2ccccc2)ccn1-c1ccn2c3c(nc2c1)CCNC3` [Example 22, 4-(Benzyloxy)-1-(1,2,3,4-tetrahydropyrido[4′,3′:4,5]imidazo[1,2-a]pyridin-7-yl)pyridin-2(1H)-one hydrochloride], the melting point was 280 °C (dec.). Moreover, the negative logarithm of the Ki (pKi) at human MCH-1 receptor is 7.68.
